Measurements from patent publication US7803955B2, “Method for preparing 2,5,7,8-tetramethyl-2-(2′-carboxyethyl)-6-acetoxychroman-precursor- α-CEHC precursor” (Institut Neftekhimii I Kataliza Ran, priority 2005, dated 2010).

How the values were obtained:
[1] = unlike the known diuretics; cited from earlier work
[2] = ratio to α-tocopherol; cited from earlier work
[3] = various model oxidative reactions; compared with α-tocopherol, ascorbic acid, Trolox; cited from earlier work

CC(=O)Oc1c(C)c(C)c2c(c1C)CCC(C)(CCC(=O)O)O2 (stereo not shown) [(V), 2,5,7,8-tetramethyl-2-(2′-carboxyethyl)-6-acetoxychroman]
melting point: 149 to 150 °C

Cc1c(O)cc2c(c1C)OC(C)(CCC(=O)O)CC2 (stereo not shown) [γ-CEHC]
excretion of sodium ions / potassium ions [1]: exclusively selectively promotes the excretion of sodium ions without affecting potassium ions

CC(=O)Oc1c(C)c(C)c2c(c1C)CCC(C)(CCC[C@H](C)CCC[C@H](C)CCCC(C)C)O2 (stereo partly drawn) [α-tocopheryl acetate]
vitamin activity relative to non-acetylated α-tocopherol [2]: 1.47 times

Cc1c(C)c2c(c(C)c1O)CCC(C)(CCC(=O)O)O2 (stereo not shown) [acid (II), 2,5,7,8-tetramethyl-2-(2′-carboxyethyl)-6-hydroxychroman]
antioxidant activity in vitro [3]: high antioxidant properties comparable with such known preparations as α-tocopherol, ascorbic acid, and the cardioprotective agent Trolox
